Where two headings read alike, the source gives them in different places.
Target: T1, human LPA1 (Homo sapiens, UniProt Q92633)
T1 construct: expressed in transfected cells; host or cells: Chinese hamster ovary (CHO) cells
Assay: LPA1 functional antagonist assay (LPA-induced calcium flux in CHO cells overexpressing human LPA1)
Assay type: cell-based
Conditions: read-out: hLPA1 IC50
Procedure, shortened: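 Calcium flux was triggered by 10 nM LPA after 20 min room-temperature compound pre-incubation (final 0.08 nM to 5 μM, 0.5% DMSO) in human LPA1-overexpressing CHO cells carrying calcium dye. Buffer: HBSS with Ca/Mg, 20 mM HEPES, 0.1% fatty-acid-free BSA; IC50s from 4-parameter logistic fits.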

[1] = inhibition of calcium flux induced by 10 nM LPA, CHO cells overexpressing human LPA1

T1 sequence (Q92633 whole entry): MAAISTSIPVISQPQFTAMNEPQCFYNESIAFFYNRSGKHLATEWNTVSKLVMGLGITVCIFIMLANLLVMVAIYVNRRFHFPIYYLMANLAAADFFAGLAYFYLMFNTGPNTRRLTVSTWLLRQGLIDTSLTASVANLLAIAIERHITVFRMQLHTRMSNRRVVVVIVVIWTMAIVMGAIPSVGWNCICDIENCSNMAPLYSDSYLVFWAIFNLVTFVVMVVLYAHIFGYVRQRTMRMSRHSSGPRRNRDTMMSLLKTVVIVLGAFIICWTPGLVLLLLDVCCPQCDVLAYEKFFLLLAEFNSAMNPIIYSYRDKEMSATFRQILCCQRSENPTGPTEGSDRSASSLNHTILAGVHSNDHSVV

| SMILES | IC50 [1] [nM] | IC50 [nM] |
| --- | --- | --- |
| Cc1nc(-c2nnn(C)c2CNc2nnc(C3CCCCC3)o2)ccc1O[C@H]1CCC[C@H](C(=O)O)C1 [Example 57] | 204 |  |
| Cc1nc(-c2nnn(C)c2CNc2ncn(CC3CC3)n2)ccc1O[C@H]1CCC[C@H](C(=O)O)C1 [Example 152] | 179 |  |
| Cn1nnc(-c2ccc(O[C@H]3CCC[C@H](C(=O)O)C3)cn2)c1CNc1noc(C2CCCC2)n1 [Example 289, (1S,3S)-3-((6-(5-(((5-cyclopentyl-1,2,4-oxadiazol-3-yl)amino)methyl)-1-methyl-1H-1,2,3-triazol-4-yl)pyridin-3-yl)oxy)cyclohexane-1-carboxylic acid] | 50.7 |  |
| Cc1nc(-c2nnn(C)c2CNc2noc(CCC(C)(C)F)n2)ccc1O[C@H]1CCC[C@H](C(=O)O)C1 [Example 179] | 43.5 |  |
| Cc1nc(-c2nnn(C)c2CNc2cnn(CC3CC3)n2)ccc1O[C@H]1CCC[C@H](C(=O)O)C1 [Example 31] | 54 |  |
| Cc1nc(-c2nnn(C)c2CNc2nnc(C3CCC3)o2)ccc1O[C@H]1CCC[C@H](C(=O)O)C1 [Example 51] | 59 |  |
| Cc1nc(-c2nnn(C)c2Cn2cc(COC(C)(C)C)nn2)ccc1O[C@H]1CCC[C@H](C(=O)O)C1 [Example 88] | 2930 |  |
| Cc1nc(-c2nnn(C)c2CNc2ncc(-c3ccccc3)s2)ccc1O[C@H]1CCC[C@H](C(=O)O)C1 [Example 16] | 67 |  |
| Cc1nc(-c2nnn(C)c2Cn2nncc2CC(C)C)ccc1O[C@H]1CCC[C@H](C(=O)O)C1 [Example 261, (1S,3S)-3-((6-(5-((5-isobutyl-1H-1,2,3-triazol-1-yl)methyl)-1-methyl-1H-1,2,3-triazol-4-yl)-2-methyl-pyridin-3-yl)oxy)cyclohexane-1-carboxylic acid] | 115 |  |
| Cc1nc(-c2nnn(C)c2CNc2noc(C3CC(F)(F)C3)n2)ccc1O[C@H]1CCC[C@H](C(=O)O)C1 [Example 153] | 46.1 |  |

Further lines, results first:

| IC50 [1] [nM] | IC50 [nM] | SMILES |
| --- | --- | --- |
|  | 59 | CCc1nc(-c2nnn(C)c2CNc2nc(C(C)C)ns2)ccc1O[C@H]1CCC[C@H](C(=O)O)C1 [Example 398, (1S,3S)-3-((2-ethyl-6-(5-(((3-isopropyl-1,2,4-thiadiazol-5-yl)amino)methyl)-1-methyl-1H-1,2,3-triazol-4-yl)pyridin-3-yl)oxy)cyclohexane-1-carboxylic acid] |
| 316 |  | CCCCNc1nnn(Cc2c(-c3ccc(O[C@H]4CCC[C@H](C(=O)O)C4)c(C)n3)nnn2C)n1 [Example 362, (1S,3S)-3-((6-(5-((5-(butylamino)-2H-tetrazol-2-yl)methyl)-1-methyl-1H-1,2,3-triazol-4-yl)-2-methyl-pyridin-3-yl)oxy)cyclohexane-1-carboxylic acid] |
|  | 26 | Cc1nc(-c2nnn(C)c2CNc2nnn(CC3CC3)n2)ccc1O[C@H]1CCC[C@H](C(=O)O)C1 [Example 386, (1S,3S)-3-((6-(5-(((2-(cyclopropyl-methyl)-2H-tetrazol-5-yl)amino)methyl)-1-methyl-1H-1,2,3-triazol-4-yl)-2-methylpyridin-3-yl)oxy)cyclohexane-1-carboxylic acid] |
| 33.4 |  | Cn1nnc(-c2ccc(O[C@H]3CCC[C@H](C(=O)O)C3)cn2)c1CNc1noc(CCC2CCC2)n1 [Example 294, (1S,3S)-3-((6-(5-(((5-(2-cyclobutyl-ethyl)-1,2,4-oxadiazol-3-yl)amino)methyl)-1-methyl-1H-1,2,3-triazol-4-yl)pyridin-3-yl)oxy)cyclohexane-1-carboxylic acid] |
|  | 43 | CCCCn1nnc(Cc2c(-c3ccc(O[C@H]4CCC[C@H](C(=O)O)C4)c(C)n3)nnn2C)n1 [Example 366, (1S,3S)-3-((6-(5-((2-butyl-2H-tetrazol-5-yl)methyl)-1-methyl-1H-1,2,3-triazol-4-yl)-2-methylpyridin-3-yl)oxy)cyclohexane-1-carboxylic acid] |
| 613 |  | CC(C)c1nc(NCc2c(-c3ccc(O[C@H]4CCC[C@H](C(=O)O)C4)cn3)nnn2C)no1 [Example 293, (1S,3S)-3-((6-(5-(((5-isopropyl-1,2,4-oxadiazol-3-yl)amino)methyl)-1-methyl-1H-1,2,3-triazol-4-yl)pyridin-3-yl)oxy)cyclohexane-1-carboxylic acid] |
